Where two headings read alike, the source gives them in different places.
What was measured:
PBMCs = experiment: IL-6 and TNF-alpha secretion in PBMCs from three donors (ELISA); assay type: cell-based, human
Method: EC50 values were determined for control and each drug candidate for IL-6 and TNF-alpha secretion. […] The cells were treated with TLR7 agonists for 24 hours in 7 doses. The conditioned media was removed for ELISA analyses for IL-6 and TNF-alpha, and cell survival determined by the XTT method according to the protocol from the supplier. […] Concentrations of IL-6 and TNF-alpha were determined by ELISA from R&D Systems using the Microsoft Excel Software. The results were analyzed in Graph Pad Prism in order to prepare dose-response curves, and for determination of EC50 values.

[1] = Intravenous pharmacokinetics in the mouse; details: for Plasma concentration Mean ± S.D.: 1 mg/kg IV
Method: An IV bolus was administered into the caudal vein at a dose of 1 mg/kg in […]. The compound weight was 2.08/10.04 ml. 24 mice were studied. […] […] Animals were sacrificed using ethyl ether at the conclusion of the experiment.
Sample preparation: In a Sirocco filter plate, 100 microliters of plasma were added to 300 microliters of ACN/MeOH spiked with 5 microliters of IS (IV298 10 micrograms per ml) plus 10 microliters of 5% H3PO4. The plate was shaken for 10 minutes at 80 rpm and then filtered under vacuum for 5 minutes.
Analytical method: LC/MS/MS: Premiere XE, Eluent: water (A) MeOH(B) plus 0.1% HCOOH gradient. 15% B to 100% B from 0.1 to 0.5, then isocratic 100% B up to 1.5 minutes, flow 0.8 ml/min; Column Acquity UPLC BEH C18 1.7 microm 2.1×50 mm, injection volume of 5 microliters in a T column at 50° C. ESI positive, MRM, Extractor 5V; Capillary 3.5 kV; T source 115° C.; T desolv. 450° C.
Data analysis: Non-compartmental analysis WinNonlin 5.1; linear trapezoidal, uniform weight.

CYP2C19 = CYP2C19 (Homo sapiens (Human), UniProt P33261); experiment: Fluorescent High Throughput P450 assay, CYP2C19; assay type: biochemical; details: substrate CEC; read-out: CYP2C19 IC50 (Mean ± S.D.)
Sequence of CYP2C19 (P33261 whole entry, looked up): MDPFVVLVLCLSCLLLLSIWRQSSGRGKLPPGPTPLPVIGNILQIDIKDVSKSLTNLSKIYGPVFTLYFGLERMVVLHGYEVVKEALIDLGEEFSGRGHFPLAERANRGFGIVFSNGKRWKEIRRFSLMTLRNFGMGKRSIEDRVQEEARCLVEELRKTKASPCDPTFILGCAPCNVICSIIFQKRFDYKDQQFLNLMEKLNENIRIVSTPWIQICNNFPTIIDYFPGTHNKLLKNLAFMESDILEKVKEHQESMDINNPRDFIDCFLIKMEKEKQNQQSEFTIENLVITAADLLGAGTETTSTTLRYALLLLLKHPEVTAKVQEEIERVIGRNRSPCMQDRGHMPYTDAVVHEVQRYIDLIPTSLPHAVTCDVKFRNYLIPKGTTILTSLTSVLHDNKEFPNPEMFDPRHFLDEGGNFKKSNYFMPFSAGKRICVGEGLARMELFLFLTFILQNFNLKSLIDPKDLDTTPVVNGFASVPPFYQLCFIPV
Method: (§1) Inhibition of the P450 isoforms was measured in specific assays using specific substrates that become fluorescent upon CYP metabolism. Compounds, dissolved in ACN (acetonitrile) (CYP2E1, CYP2C8, CYP2B6, CYP3A5) or DMSO (all remaining isoforms), were tested in duplicate (n=2) in concentration-response curves (eight concentrations) in a 96-well plate containing incubation/NADPH regenerating buffer. Specific isoenzymes and substrates were added and incubated at 37° C. Reactions were terminated at different times, depending on the assays, and plates read on a Fluoroskan Ascent at the appropriate emission/excitation wavelengths. Concentration-response curves performed in duplicate for known inhibitors for each isoenzyme were tested in every assay as positive control.

[2] = test system: Escherichia coli WP2 uvrA; experiment: Bacterial mutation assay, Escherichia coli; details: absence or presence of S9 metabolism
Method: The five tester strains TA1535, TA1537, TA98, TA100 and WP2 uvrA were used. Experiments were performed both in the absence and presence of metabolic activation, using liver S9 fraction from rats pre-treated with phenobarbitone and betanaphthoflavone. SC12 was used as a solution in dimethylsulfoxide (DMSO).

[3] = Single dose intravenous acute toxicity study in rats; assay type: in vivo, Sprague Dawley rat; details: for Mortality: preliminary phase, one male and one female; for Mortality and signs of toxicity: main phase
Method: An additional group, similarly composed, received the vehicle alone and acted as a control. […] Clinical signs were limited to piloerection and reduced activity, observed on the day of dosing.
In the main phase, 5 male and 5 female animals were dosed at 90 mg/kg and observed for a period of 14 days. A second group, similarly constituted, received the vehicle alone and acted as control. […] In addition, one male and one female dosed at 90 mg/kg were found dead on Day 2 of the study. Twitches, ataxia, piloerection, reduced activity and hunched posture were the major signs observed in animals before death. […] Piloerection was observed up to Day 3 of the study. A second group, similarly composed, was dosed at 80 mg/kg.

CYP2B6 = CYP2B6 (Homo sapiens (Human), UniProt P20813); experiment: Fluorescent High Throughput P450 assay, CYP2B6; assay type: biochemical; details: substrate EFC; read-out: CYP2B6 IC50 (Mean ± S.D.)
Sequence of CYP2B6 (P20813 whole entry, looked up): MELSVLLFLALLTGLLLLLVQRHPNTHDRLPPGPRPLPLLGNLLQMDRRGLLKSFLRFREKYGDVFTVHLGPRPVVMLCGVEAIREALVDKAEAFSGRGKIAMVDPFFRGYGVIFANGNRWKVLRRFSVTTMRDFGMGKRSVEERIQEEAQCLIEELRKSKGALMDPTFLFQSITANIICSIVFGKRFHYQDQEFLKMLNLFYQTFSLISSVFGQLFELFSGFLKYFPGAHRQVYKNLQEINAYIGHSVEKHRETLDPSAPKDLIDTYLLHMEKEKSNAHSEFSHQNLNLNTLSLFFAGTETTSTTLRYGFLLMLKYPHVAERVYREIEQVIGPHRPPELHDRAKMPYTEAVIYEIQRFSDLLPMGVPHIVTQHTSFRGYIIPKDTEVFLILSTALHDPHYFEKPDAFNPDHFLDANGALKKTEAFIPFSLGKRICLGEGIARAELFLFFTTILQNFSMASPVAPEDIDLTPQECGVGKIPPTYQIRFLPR
Method: as §1

CYP2D6 = CYP2D6 (Homo sapiens (Human), UniProt P10635); experiment: Fluorescent High Throughput P450 assay, CYP2D6; assay type: biochemical; details: substrate AMMC; read-out: CYP2D6 IC50 (Mean ± S.D.)
Sequence of CYP2D6 (P10635 whole entry, looked up): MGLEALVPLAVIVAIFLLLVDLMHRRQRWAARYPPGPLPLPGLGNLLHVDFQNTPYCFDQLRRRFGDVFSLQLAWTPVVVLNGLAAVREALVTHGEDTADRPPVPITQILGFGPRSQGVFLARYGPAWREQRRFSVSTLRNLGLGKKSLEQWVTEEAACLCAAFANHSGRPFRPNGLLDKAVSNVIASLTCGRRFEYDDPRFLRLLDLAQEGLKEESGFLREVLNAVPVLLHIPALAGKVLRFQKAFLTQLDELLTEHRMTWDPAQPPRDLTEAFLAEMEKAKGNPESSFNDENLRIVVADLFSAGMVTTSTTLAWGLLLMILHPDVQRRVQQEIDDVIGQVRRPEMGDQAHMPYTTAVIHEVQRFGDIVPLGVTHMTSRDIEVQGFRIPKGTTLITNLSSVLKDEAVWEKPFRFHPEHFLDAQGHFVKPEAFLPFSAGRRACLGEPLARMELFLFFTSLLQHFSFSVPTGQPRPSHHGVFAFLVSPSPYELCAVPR
Method: as §1

HLA-DR+/CD20+ B cells = experiment: FACS analysis of B cell activation (CD40) in whole blood; assay type: cell-based, human; details: 24 hours, 2 and 10 uM, three donors
Method: A flow cytometric analysis was performed on whole blood from three donors after treatment with two compound concentrations for 24 h. The FACS analysis for donor 1 and donor 2 was made on another day than donor 3. The compound concentrations were as follows:
B cell activation: 2 and 10 uM
The FACS analysis was used to identify whether the test compounds could induce activation of B cells, and two different subsets of dendritic cells, namely the myeloid CD11c+/CD123− DCs and the plasmacytoid CD11c−/CD123+ DCs. The following markers were studied to identify the activation status of the different subsets:
The FACS staining was performed according to the manufacturer's instructions. Lysis of red blood cells was performed before FACS staining in order to minimize auto-florescence. To include as many B cells and DCs in the study as possible the FACS analyses were performed on 500,000 cells in total for each staining. A P1 gate was set only to include relevant cells on FSC vs. SSC (see FIGS. 12-15). The results of the individual analysis were present as Mean Fluorescence Intensity
The analysis of expression of the activation marker CD40 on B cells was made on double positive HLA-DR (MHC class II) (P4 gate) and CD20 cells (B cell marker) (P8 gate).

CYP1A2 = CYP1A2 (Homo sapiens (Human), UniProt P05177); experiment: Fluorescent High Throughput P450 assay, CYP1A2; assay type: biochemical; details: substrate CEC; read-out: CYP1A2 IC50 (Mean ± S.D.)
Sequence of CYP1A2 (P05177 whole entry, looked up): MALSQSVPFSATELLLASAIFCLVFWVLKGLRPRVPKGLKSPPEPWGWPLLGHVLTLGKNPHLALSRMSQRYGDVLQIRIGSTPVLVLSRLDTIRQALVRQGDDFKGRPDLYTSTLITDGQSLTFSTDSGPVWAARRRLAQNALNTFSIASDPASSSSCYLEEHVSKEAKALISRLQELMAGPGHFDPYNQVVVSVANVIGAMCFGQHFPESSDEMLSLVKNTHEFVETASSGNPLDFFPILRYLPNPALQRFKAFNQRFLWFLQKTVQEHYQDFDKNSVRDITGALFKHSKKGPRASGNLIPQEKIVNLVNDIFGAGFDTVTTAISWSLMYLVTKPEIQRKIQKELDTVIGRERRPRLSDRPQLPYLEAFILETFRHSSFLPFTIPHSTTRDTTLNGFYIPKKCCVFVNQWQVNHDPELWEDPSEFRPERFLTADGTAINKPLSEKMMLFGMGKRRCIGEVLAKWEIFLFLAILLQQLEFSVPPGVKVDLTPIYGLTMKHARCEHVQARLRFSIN
Method: as §1

CYP2E1 = CYP2E1 (Homo sapiens (Human), UniProt P05181); experiment: Fluorescent High Throughput P450 assay, CYP2E1; assay type: biochemical; details: substrate MFC; read-out: CYP2E1 IC50 (Mean ± S.D.)
Sequence of CYP2E1 (P05181 whole entry, looked up): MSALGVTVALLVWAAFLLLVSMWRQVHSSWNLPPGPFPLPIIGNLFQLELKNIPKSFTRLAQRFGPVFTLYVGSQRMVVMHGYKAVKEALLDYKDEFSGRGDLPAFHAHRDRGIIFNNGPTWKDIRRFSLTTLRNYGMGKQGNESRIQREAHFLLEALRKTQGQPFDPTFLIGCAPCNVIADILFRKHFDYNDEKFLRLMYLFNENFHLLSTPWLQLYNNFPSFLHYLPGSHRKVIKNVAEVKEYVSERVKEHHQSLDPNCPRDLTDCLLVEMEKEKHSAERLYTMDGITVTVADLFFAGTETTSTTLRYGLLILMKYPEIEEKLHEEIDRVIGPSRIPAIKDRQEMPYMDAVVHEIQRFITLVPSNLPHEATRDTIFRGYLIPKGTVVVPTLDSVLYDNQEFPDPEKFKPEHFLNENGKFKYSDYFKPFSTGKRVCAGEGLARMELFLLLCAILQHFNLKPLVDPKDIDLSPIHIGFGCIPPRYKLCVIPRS
Method: as §1

For `CCCCCCCCCCCC(=O)OCC(COP(=O)(O)OCCNC(=O)c1ccc(Cn2c(=O)[nH]c3c(N)nc(OCCOC)nc32)cc1)OC(=O)CCCCCCCCCCC` (stereo not shown) [SC12], the EC50 (PBMCs; D1, first experiments on three donors, read-out: EC50 values, IL-6 secretion) was 1440 nM, the EC50 (PBMCs; D2, first experiments on three donors, read-out: EC50 values, IL-6 secretion) was 864 nM and the EC50 (PBMCs; D3, first experiments on three donors, read-out: EC50 values, IL-6 secretion) was 2780 nM. The EC50 (PBMCs; Donor 1, 24 hours, read-out: IL-6 secretion MC50) was 1440 nM, the EC50 (PBMCs; Donor 1, 24 hours, read-out: TNFa secretion MC50) was 995 nM and the EC50 (PBMCs; Donor 2, 24 hours, read-out: IL-6 secretion MC50) was 864 nM. The EC50 (PBMCs; Donor 2, 24 hours, read-out: TNFa secretion MC50) was 275 nM, the EC50 (PBMCs; Donor 3, 24 hours, read-out: IL-6 secretion MC50) was 2780 nM and the EC50 (PBMCs; Donor 3, 24 hours, read-out: TNFa secretion MC50) was 121 nM. For the same molecule, the EC50 (PBMCs; average of three donors, read-out: IL-6 secretion Average EC50) was 1700 nM, the EC50 (PBMCs; average of three donors, read-out: TNFa secretion Average EC50) was 464 nM and the “AUC INF obs” value ([1]; 1 mg/kg IV bolus, plasma) was 12878 ng·min/mL. For the same molecule, the AUClast ([1]; 1 mg/kg IV bolus, plasma) was 11744 ng·min/mL, the C0 ([1]; 1 mg/kg IV bolus, plasma) was 2664 ng/mL and the CI ([1]; 1 mg/kg IV bolus, plasma) was 77.7 mL/min/kg. For the same molecule, the Clast ([1]; 1 mg/kg IV bolus, plasma) was 6 ng/mL, the Cmax ([1]; 1 mg/kg IV bolus, plasma) was 541 ng/mL and the MRT ([1]; 1 mg/kg IV bolus, plasma) was 32 min. For the same molecule, the “T ½” value ([1]; 1 mg/kg IV bolus, plasma) was 130 min, the Tlast ([1]; 1 mg/kg IV bolus, plasma) was 120 min and the Tmax ([1]; 1 mg/kg IV bolus, plasma) was 5 min. The Vss ([1]; 1 mg/kg IV bolus, plasma) was 2.5 L/kg, the “Plasma concentration Mean ± S.D.” value ([1]; 5 min) was 540.70 ± 179.99 ng/mL and the “Plasma concentration Mean ± S.D.” value ([1]; 15 min) was 22.27 ± 3.16 ng/mL. The “Plasma concentration Mean ± S.D.” value ([1]; 30 min) was 10.00 ± 1.68 ng/mL, the “Plasma concentration Mean ± S.D.” value ([1]; 60 min) was 7.62 ± 0.72 ng/mL and the “Plasma concentration Mean ± S.D.” value ([1]; 120 min) was 6.05 ± 0.78 ng/mL. The “Plasma concentration Mean ± S.D.” value ([1]; 240 min, LLOQ 5 ng/ml) was “<LLOQ”, the “Plasma concentration Mean ± S.D.” value ([1]; 480 min, LLOQ 5 ng/ml) was “<LLOQ” and the “Plasma concentration Mean ± S.D.” value ([1]; 1440 min, LLOQ 5 ng/ml) was “<LLOQ”. The IC50 (CYP2C19) was greater than 100000 nM, the “Toxicity to tester strains” value ([2]; 50.0-5000 micrograms/plate) was “No toxicity was observed” and the Reverse mutation ([2]; up to 5000 micrograms/plate) was “does not induce reverse mutation”. The Mortality ([3]; 76 mg/kg i.v.) was “No mortality occurred”, the “Mortality and signs of toxicity” value ([3]; 80 mg/kg i.v.) was “no mortality and no signs of toxicity” and the “Mortality and signs of toxicity” value ([3]; 90 mg/kg i.v., 5 male and 5 female) was “induced mortality or significant signs of toxicity”. For the same molecule, the Mortality ([3]; 100 mg/kg i.v.) was “Both animals died at dosing”, the Maximum tolerated dose ([3]; single intravenous dose) was 80 mg/kg and the IC50 (CYP2B6) was greater than 100000 nM. For the same molecule, the IC50 (CYP2D6) was 67000 ± 3800 nM, the “CD40 expression (MFI) on B cells” value (HLA-DR+/CD20+ B cells) was “induced CD40 expression in donor 1 and donor 2 in all tested concentrations” and the IC50 (CYP1A2) was greater than 100000 nM. The IC50 (CYP2E1) was 9200 ± 100 nM.
